Measured values reported in article PMC6024209, “Inhibition of P. aeruginosa c-di-GMP phosphodiesterase RocR and swarming motility by a benzoisothiazolinone derivative” (Chemical Science, 2016).

Molecular target: RocR (Pseudomonas aeruginosa, UniProt Q9HX69)
Assay: RocR intrinsic fluorescence change (Kd […] by two fits); also non-competitive enzyme inhibition, Ki […]
Type: binding

Chain of RocR (Q9HX69 whole entry): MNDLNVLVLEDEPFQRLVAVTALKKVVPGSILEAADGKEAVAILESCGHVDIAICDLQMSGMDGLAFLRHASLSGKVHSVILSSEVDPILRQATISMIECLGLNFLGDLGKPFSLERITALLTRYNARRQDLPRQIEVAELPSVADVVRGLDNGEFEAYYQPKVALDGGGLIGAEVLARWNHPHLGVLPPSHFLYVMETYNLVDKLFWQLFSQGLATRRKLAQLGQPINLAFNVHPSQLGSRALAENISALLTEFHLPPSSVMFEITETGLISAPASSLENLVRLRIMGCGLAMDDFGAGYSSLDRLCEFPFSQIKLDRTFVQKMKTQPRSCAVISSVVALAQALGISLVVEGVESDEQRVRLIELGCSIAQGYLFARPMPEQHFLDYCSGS

O=C(CCCn1sc2ccccc2c1=O)Nc1ccc(O)cc1 [compound 1]
Kd: 14 ± 2 µM
